Test results reported in patent US4267175A, “Benzamide derivatives” (Beecham Group Limited, priority 1976, dated 1981).

Experiments:
Assay type in all cases: in vivo
[1] = test system: emetic response to apomorphine; experiment: Anti-emetic activity in the dog (abolition of emetic response to apomorphine); details: for ED50: Canis lupus familiaris, sc, apomorphine emesis
Description: 2. Anti- emetic activity in the dog
(a) Compounds were tested in the dog for their ability to abolish the emetic response to apomorphine.

[2] = test system: stereotype behaviour induced by apomorphine (dopamine receptor blockade in the central nervous system); experiment: Inhibition of stereotype behaviour induced by apomorphine; details: rat; for Inhibition of Stereotype Behaviour, active dose: s.c., apomorphine induced, active doses (mg/kg)
Description: (§1) 1. Compounds prepared in the Examples were tested for the following pharmacological activities in the rat:
(c) Inhibition of stereotype behaviour induced by apomorphine
This is indicative of dopamine receptor blockade in the central nervous system.

[3] = test system: apomorphine induced delay in gastric emptying; experiment: Increase in gastric emptying - reversal of apomorphine induced delay in gastric emptying of a test meal; details: rat, s.c., apomorphine HCl 5 mg/kg s.c., active doses (mg/kg); for Increase in Gastric Emptying, active dose (slightly active): slightly active at this dose
Description: as §1
(b) Increase in gastric emptying-reversal of apomorphine induced delay in gastric emptying of a test meal.
Rats equipped with chronic gastric fistual were used and it was through this that 5 ml of a test meal (5 ml phosphate buffer at pH 9) was administered and recovered. The % recovery of the standard meal after remaining in the stomach for 10 minutes was taken as an index of gastric emptying. Delay in gastric emptying was induced by the administration of Apomorphine HCl (5 mg/kg subcutaneously) and was given 15 minutes prior to the subcutaneous administration of the Compound. The % recoveries of the test meal was determined at 15-25 and 45-55 minutes post dosing with the Compound and compared with vehicle only dosed animals set up simultaneously. Six animals were used for each group.

intragastric pressure [4] = experiment: Increase in intragastric pressure in the rat; details: s.c., active doses (mg/kg)
Description: as §1
(a) Increase in intragastric pressure
Intragastric pressure changes were recorded from previously starved conscious but restrained rats using a saline filled catheter inserted into the lumen of the stomach via a permanent gastric fistula. The catheter was connected to a physiological pressure transducer and pressure changes recorded on a hot wire pen recorder. In each animal a pre dose period of 40 minutes was allowed to obtain a measure of spontaneous activity. An index of activity was obtained by measuring the average height of pressure waves during 10 minute periods. Values for 4 such periods were obtained during assessment of spontaneous activity and for the 40 minute period after the subcutaneous administration of the Compounds. Student "t" test was applied to the difference in average values obtained for spontaneous and post Compound activity.

[5] = test system: catapresan induced fighting behaviour; experiment: Catapresan Test (catapresan induced fighting behaviour); details: Mus musculus, po; mice, orally; catapresan 20-25 mg/kg intravenously; read-out: ED50, inhibition of catapresan induced fighting behaviour
Description: Catapresan (20-25 mg/kg intravenously) was used to induce fighting behaviour in mice. The fighting was assessed as the biting of a dead mouse placed in the cage and was given a score of 1 or 2 depending on intensity. Compound effect was measured as percentage inhibition of fighting compared to that with control animals and the dose reducing fighting by 50% was determined graphically.

[6] = test system: amphetamine induced stereotypy; experiment: Antagonism of Amphetamine Stereotypy; details: rats, 10 mg/kg subcutaneously; d-amphetamine 10 mg/kg s.c.
Description: Antagonism of Amphetamine Stereotypy
Based on method of Jansen, Niemegeers and Schellekens (1966), Arzneimittel Forsch., 15, pp. 104-117. Rats were given compound 15 minutes prior to subcutaneous injection of d-amphetamine (10 mg/kg). 30 minutes and 1 hour after the amphetamine, the degree of stereotyped behaviour was scored according to the method of Costal, Naylor and Olley (1972). Europ. J. Pharmacol., 18, pp. 83-94. The percentage inhibition of stereotypy at the respective time interval was calculated.

intragastric pressure [7] = experiment: Increase in intragastric pressure in the rat; details: p.o., active doses (mg/kg)

## COc1cc(N)c(Cl)cc1C(=O)NN1CCN(Cc2ccccc2)CC1 [Example 1, 4-Amino-5-chloro-2-methoxy-N-[4-benzyl-1-piperazinyl]benzamide]
[1]
  ED50: 0.0125 mg/kg
[2]
  Inhibition of Stereotype Behaviour, active dose: 0.625 mg

## CCCC[N+]1(C)CCN(NC(=O)c2cc(Cl)c(N)cc2OC)CC1.[Br-] [Example 19, 4-Amino-5-chloro-2-methoxy-N-[4-n-butyl-1-piperazinyl]-benzamide methobromide]
[3]
  Increase in Gastric Emptying, active dose (slightly active): 50 mg
[2]; at 50 mg s.c.
  Inhibition of Stereotype Behaviour: Inactive
Intragastric pressure [4]
  Increase in Intra-gastric Pressure, active dose: 1 mg/kg

## COc1cc(N)c(Cl)cc1C(=O)NN1CC[N+](C)(Cc2ccccc2)CC1.[Br-] [Example 18, 4-Amino-5-chloro-2-methoxy-N-[4-methyl-1-piperazinyl]-benzamide benzobromide]
[3]
  Increase in Gastric Emptying, active dose: 25 mg
[2]; at 50 mg s.c.
  Inhibition of Stereotype Behaviour: Inactive
Intragastric pressure [4]
  Increase in Intra-gastric Pressure, active dose: 25 mg/kg

## COc1cc(N)c(Cl)cc1C(=O)NN1CCN(Cc2ccsc2)CC1 [Example 12, 4-Amino-5-chloro-2-methoxy-N-[4-(3-thenyl)-1-piperazinyl]-benzamide]
[2]
  Inhibition of Stereotype Behaviour, active dose: 50 mg

## COc1cc(N)c(Cl)cc1C(=O)NN1CCN(Cc2ccc(N(C)C)cc2)CC1 [Example 23, 4-Amino-5-chloro-2-methoxy-N-[4-(4-dimethylaminobenzyl)-1-piperazinyl]benzamide]
[5]
  ED50: 60 mg/kg
[6]
  Inhibition of amphetamine induced stereotypy: 25%

## CCCCCN1CCN(NC(=O)c2cc(Cl)c(N)cc2OC)CC1 [Example 13, 4-amino-5-chloro-2-methoxy-N-[4-(1-pentyl)-1-piperazinyl]-benzamide]
[1]
  ED50: 0.36 mg/kg
[2]
  Inhibition of Stereotype Behaviour, active dose: 50 mg

## CCCN1CCN(NC(=O)c2cc(Cl)c(N)cc2OC)CC1 [Example 15, 4-amino-5-chloro-2-methoxy-N-[4-(1-propyl)-1-piperazinyl]-benzamide]
[3]
  Increase in Gastric Emptying, active dose (slightly active): 50 mg
[2]; at 50 mg s.c.
  Inhibition of Stereotype Behaviour: Inactive
Intragastric pressure [4]
  Increase in Intra-gastric Pressure, active dose: 10 mg/kg

## COc1cc(N)c(Cl)cc1C(=O)NN1CCN(C)CC1 [Example 2, 4-Amino-5-chloro-2-methoxy-N-[4-methyl-1-piperazinyl]benzamide]
Intragastric pressure [7]
  Increase in Intra-gastric Pressure, active dose: 20 mg/kg
[1]
  ED50: 8 mg/kg
[2]; at 100 mg s.c.
  Inhibition of Stereotype Behaviour: Inactive
Intragastric pressure [4]
  Increase in Intra-gastric Pressure, active dose: 1 mg/kg

## COc1cc(N)c(Cl)cc1C(=O)NN1CCN(Cc2cccs2)CC1 [Example 11, 4-Amino-5-chloro-2-methoxy-N-[4-(2-thenyl)-1-piperazinyl]-benzamide]
[2]; at 50 mg s.c.
  Inhibition of Stereotype Behaviour: Inactive
Intragastric pressure [4]; slightly active at this dose
  Increase in Intra-gastric Pressure, active dose (slightly active): 50 mg

## COc1cc(N)c(Cl)cc1C(=O)NN1CCN(Cc2ccc(F)cc2)CC1 [Example 14, 4-amino-5-chloro-2-methoxy-N-[4-(4-fluorobenzyl)-1-piperazinyl]-benzamide]
[2]
  Inhibition of Stereotype Behaviour, active dose: 50 mg

## COc1cc(N)c(Cl)cc1C(=O)NN1CCCN(C)CC1 [Example 9, 4-Amino-5-chloro-2-methoxy-N-[4-methyl-1-(1,4-diazacycloheptyl)]benzamide]
[1]; at 2 mg/kg s.c., inhibition of no. of vomits only
  Anti-emetic activity: slight activity
[2]; at 25 mg s.c.
  Inhibition of Stereotype Behaviour: Inactive
Intragastric pressure [4]
  Increase in Intra-gastric Pressure, active dose: 10 mg/kg

## COc1ccc(CN2CCN(NC(=O)c3cc(Cl)c(N)cc3OC)CC2)cc1 [Example 8, 4-Amino-5-chloro-2-methoxy-N-[4-(4-methoxybenzyl)-1-piperazinyl]benzamide]
[2]
  Inhibition of Stereotype Behaviour, active dose: 3 mg

## CCCCN1CCN(NC(=O)c2cc(Cl)c(N)cc2OC)CC1 [Example 6, 4-Amino-5-chloro-2-methoxy-N-[4-n-butyl-1-piperazinyl]benzamide]
[1]
  ED50: 1 mg/kg
[2]; at 25 mg s.c.
  Inhibition of Stereotype Behaviour: Inactive
Intragastric pressure [4]
  Increase in Intra-gastric Pressure, active dose: 5 mg/kg

## COc1cc(N)c(Cl)cc1C(=O)NN1CCN(Cc2ccc(Cl)cc2)CC1 [Example 7, 4-Amino-5-chloro-2-methoxy-N-{[4-(4-chlorobenzyl)]1-piperazinyl}benzamide]
[2]
  Inhibition of Stereotype Behaviour, active dose: 50 mg

## CCN1CCN(NC(=O)c2cc(Cl)c(N)cc2OC)CC1 [Example 5, 4-Amino-5-chloro-2-methoxy-N-[4-ethyl-1-piperazinyl]benzamide]
[2]; at 50 mg s.c.
  Inhibition of Stereotype Behaviour: Inactive
Intragastric pressure [4]
  Increase in Intra-gastric Pressure, active dose: 50 mg/kg

## CCCCN1CCCN(NC(=O)c2cc(Cl)c(N)cc2OC)CC1 [Example 22, 4-Amino-5-chloro-2-methoxy-N-[4-n-butyl-1-(1-4-diazocycloheptyl)]benzamide]
[1]; at 5 mg/kg subcutaneously
  Inhibition of apomorphine induced emesis: completely inhibited

## COc1cc(N)c(Cl)cc1C(=O)NN1CC[N+](C)(C)CC1.[Br-] [Example 17, 4-Amino-5-chloro-2-methoxy-N-[4-methyl-1-piperazinyl]-benzamide methobromide]
[2]; at 50 mg s.c.
  Inhibition of Stereotype Behaviour: Inactive
Intragastric pressure [4]
  Increase in Intra-gastric Pressure, active dose: 0.5 mg/kg

## COc1cc(N)c(Br)cc1C(=O)NN1CCN(C)CC1 [Example 21, 4-Amino-5-bromo-2-methoxy-N-[4-methyl-1-piperazinyl]-benzamide hemihydrate]
[2]; at 50 mg s.c.
  Inhibition of Stereotype Behaviour: Inactive
Intragastric pressure [4]
  Increase in Intra-gastric Pressure, active dose: 5 mg/kg

## COc1cc(N)c(Cl)cc1C(=O)NN1CCN(C(C)C)CC1 [Example 16, 4-amino-5-chloro-2-methoxy-N-[4-(2-propyl)-1-piperazinyl]-benzamide]
[2]; at 50 mg s.c.
  Inhibition of Stereotype Behaviour: Inactive
Intragastric pressure [4]
  Increase in Intra-gastric Pressure, active dose: 5 mg/kg

## COc1cc(N)c(Cl)cc1C(=O)NN1CCN(CCC(C)C)CC1 [Example 20, 4-Amino-5-chloro-2-methoxy-N-[4-(3-methylbutyl)-1-piperazinyl]-benzamide]
[1]
  ED50: 0.35 mg/kg

## COc1cc(N)c(Cl)cc1C(=O)NN1CCN(C)CC1 [Example 4, 4-amino-5-chloro-2-methoxy-N-[4-methyl-1-piperazinyl]benzamide]
Intragastric pressure [7]
  Increase in Intra-gastric Pressure, active dose: 10 mg/kg
